The source made the active and inactive calls. The calls are words filed in the database; no cut-off is given here.
What was measured:
[1] = system: N2a; assay: Upregulation of ID11 mRNA expression in mouse Neuro2a cells by qRT-PCR analysis; format: functional, cell-based
[2] = system: N2a; assay: Upregulation of FDPS gene expression in mouse Neuro2a cells by STRING analysis; format: functional, cell-based
[3] = system: N2a; assay: Upregulation of CYP51 mRNA expression in mouse Neuro2a cells by qRT-PCR analysis; format: functional, cell-based
[4] = system: N2a; assay: Upregulation of LSS gene expression in mouse Neuro2a cells by STRING analysis; format: functional, cell-based
[5] = system: N2a; assay: Upregulation of HMGCR mRNA expression in mouse Neuro2a cells by qRT-PCR analysis; format: functional, cell-based
[6] = system: N2a; assay: Upregulation of ACAT2 gene expression in mouse Neuro2a cells by STRING analysis; format: functional, cell-based
[7] = system: N2a; assay: Upregulation of HMGCS1 gene expression in mouse Neuro2a cells by STRING analysis; format: functional, cell-based
[8] = system: N2a; assay: Upregulation of SQLE mRNA expression in mouse Neuro2a cells by qRT-PCR analysis; format: functional, cell-based
[9] = system: N2a; assay: Upregulation of HMGCR protein expression in mouse Neuro2a cells by parallel reaction monitoring analysis; format: functional, cell-based
[10] = system: N2a; assay: Induction of neurite outgrowth in mouse Neuro2a cells assessed as increase in GAP43 protein expression at 25 uM incubated for 24 hrs by immunoblotting analysis; format: functional, cell-based
[11] = system: N2a; assay: Upregulation of MVD gene expression in mouse Neuro2a cells by STRING analysis; format: functional, cell-based
[12] = system: N2a; assay: Upregulation of FDF1 mRNA expression in mouse Neuro2a cells by qRT-PCR analysis; format: functional, cell-based
[13] = target: T1, Sterol regulatory element-binding protein 2 (Mus musculus) (UniProt Q3U1N2); assay: Activation of SREBP2 in mouse Neuro2a cells assessed as increase in ERBB4 protein expression by immunoblot analysis; format: cell-based; details: filed as activator
T1 sequence (whole entry): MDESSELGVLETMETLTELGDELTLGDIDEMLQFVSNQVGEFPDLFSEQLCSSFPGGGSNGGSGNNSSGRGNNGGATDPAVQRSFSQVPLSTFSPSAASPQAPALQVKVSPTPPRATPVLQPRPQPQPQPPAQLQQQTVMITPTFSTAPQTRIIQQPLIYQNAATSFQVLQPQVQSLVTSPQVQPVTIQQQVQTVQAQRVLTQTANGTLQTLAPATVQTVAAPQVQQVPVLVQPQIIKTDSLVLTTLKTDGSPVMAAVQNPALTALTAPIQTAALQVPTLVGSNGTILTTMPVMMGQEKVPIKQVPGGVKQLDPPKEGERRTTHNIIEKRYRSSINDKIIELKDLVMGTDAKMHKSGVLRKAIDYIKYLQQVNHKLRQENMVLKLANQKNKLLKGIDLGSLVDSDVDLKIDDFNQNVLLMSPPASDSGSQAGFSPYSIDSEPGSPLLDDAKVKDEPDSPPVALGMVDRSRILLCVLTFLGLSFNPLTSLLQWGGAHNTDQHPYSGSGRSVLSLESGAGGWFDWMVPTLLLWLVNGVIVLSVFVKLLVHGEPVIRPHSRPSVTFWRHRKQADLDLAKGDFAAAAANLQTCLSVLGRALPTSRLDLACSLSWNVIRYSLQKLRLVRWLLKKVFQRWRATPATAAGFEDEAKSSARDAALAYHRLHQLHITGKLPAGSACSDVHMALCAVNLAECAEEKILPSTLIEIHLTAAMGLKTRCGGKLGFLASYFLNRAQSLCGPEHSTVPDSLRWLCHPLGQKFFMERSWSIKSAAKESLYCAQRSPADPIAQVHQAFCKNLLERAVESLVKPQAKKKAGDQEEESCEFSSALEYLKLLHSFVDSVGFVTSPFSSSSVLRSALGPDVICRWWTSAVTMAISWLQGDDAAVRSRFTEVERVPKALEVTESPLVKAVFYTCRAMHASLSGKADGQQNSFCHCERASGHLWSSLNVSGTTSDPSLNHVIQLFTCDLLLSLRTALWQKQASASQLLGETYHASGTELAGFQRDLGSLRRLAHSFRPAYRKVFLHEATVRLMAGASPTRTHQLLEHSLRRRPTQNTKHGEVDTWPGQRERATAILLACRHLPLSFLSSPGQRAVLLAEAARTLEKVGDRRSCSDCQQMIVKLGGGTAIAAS

[14] = system: N2a; assay: Internalization of ERBB4 in mouse Neuro2a cells assessed as retention of ERBB4 level in lipids raft of cells by immunoblot analysis; format: functional, cell-based
[15] = target: T1, Sterol regulatory element-binding protein 2 (Mus musculus); assay: Activation of SREBP2 in mouse Neuro2a cells assessed as increase in mTOR protein expression by immunoblot analysis; format: cell-based; details: filed as activator
[16] = system: N2a; assay: Upregulation of SREBP2 gene expression in mouse Neuro2a cells by STRING analysis; format: functional, cell-based
[17] = system: N2a; assay: Upregulation of NSDHL protein expression in mouse Neuro2a cells by parallel reaction monitoring analysis; format: functional, cell-based
[18] = system: N2a; assay: Upregulation of LSS mRNA expression in mouse Neuro2a cells by qRT-PCR analysis; format: functional, cell-based
[19] = system: N2a; assay: Upregulation of NSDHL gene expression in mouse Neuro2a cells by STRING analysis; format: functional, cell-based
[20] = system: N2a; assay: Upregulation of PMVK mRNA expression in mouse Neuro2a cells by qRT-PCR analysis; format: functional, cell-based
[21] = system: N2a; assay: Upregulation of SREBP2 mRNA expression in mouse Neuro2a cells by qRT-PCR analysis; format: functional, cell-based
[22] = system: N2a; assay: Upregulation of CYP51 protein expression in mouse Neuro2a cells by parallel reaction monitoring analysis; format: functional, cell-based
[23] = system: N2a; assay: Induction of cholesterol biosynthesis in mouse Neuro2a cells assessed as increase in total cholesteryl level; format: functional, cell-based
[24] = system: N2a; assay: Upregulation of CYP51 gene expression in mouse Neuro2a cells by STRING analysis; format: functional, cell-based
[25] = target: T1, Sterol regulatory element-binding protein 2 (Mus musculus); assay: Activation of SREBP2 in mouse Neuro2a cells assessed as increase in phosphorylated ERBB4 protein expression by immunoblot analysis; format: cell-based; details: filed as activator
[26] = system: N2a; assay: Upregulation of phosphorylated TrkA expression in mouse Neuro2a cells by immunoblot analysis; format: functional, cell-based
[27] = system: N2a; assay: Induction of cholesterol biosynthesis in mouse Neuro2a cells assessed as increase in total cholesterol level; format: functional, cell-based
[28] = system: N2a; assay: Upregulation of HMGCS mRNA expression in mouse Neuro2a cells by qRT-PCR analysis; format: functional, cell-based
[29] = system: N2a; assay: Upregulation of MVD mRNA expression in mouse Neuro2a cells by qRT-PCR analysis; format: functional, cell-based
[30] = system: N2a; assay: Upregulation of DHCR7 protein expression in mouse Neuro2a cells by parallel reaction monitoring analysis; format: functional, cell-based
[31] = system: N2a; assay: Upregulation of FDPS mRNA expression in mouse Neuro2a cells by qRT-PCR analysis; format: functional, cell-based
[32] = Cytotoxicity against mouse Neuro2a cells assessed as inhibition of cell growth incubated for 24 hrs by MTT assay; format: toxicity, cell-based, N2a
[33] = system: Cortical neurone; assay: Induction of neurite outgrowth in C57BL/6 mouse Primary cortical neuron assessed as change in neurite number per cell at 25 uM incubated for 24 hrs; format: functional, cell-based
[34] = system: N2a; assay: Upregulation of FDFT1 gene expression in mouse Neuro2a cells by STRING analysis; format: functional, cell-based
[35] = system: N2a; assay: Upregulation of HMGCS1 protein expression in mouse Neuro2a cells by parallel reaction monitoring analysis; format: functional, cell-based
[36] = system: N2a; assay: Upregulation of MVK mRNA expression in mouse Neuro2a cells by qRT-PCR analysis; format: functional, cell-based
[37] = system: N2a; assay: Upregulation of LSS protein expression in mouse Neuro2a cells by parallel reaction monitoring analysis; format: functional, cell-based
[38] = system: Cortical neurone; assay: Induction of neurite outgrowth in C57BL/6 mouse Primary cortical neuron assessed as increase in total neurite length at 25 uM incubated for 24 hrs (reference value: 58.3 +/- 8.68 […]); format: functional
[39] = system: N2a; assay: Upregulation of NSDHL mRNA expression in mouse Neuro2a cells by qRT-PCR analysis; format: functional, cell-based
[40] = system: N2a; assay: Upregulation of FDPS protein expression in mouse Neuro2a cells by parallel reaction monitoring analysis; format: functional, cell-based
[41] = system: N2a; assay: Upregulation of DHCR7 mRNA expression in mouse Neuro2a cells by qRT-PCR analysis; format: functional, cell-based

CCCCCCCCCCCCC/C=C/[C@@H](O)[C@H](CO[C@@H]1O[C@H](CO)[C@@H](O[C@@H]2O[C@H](CO)[C@H](O[C@@H]3O[C@H](CO)[C@H](O)[C@H](O[C@@H]4O[C@H](CO)[C@H](O)[C@H](O)[C@H]4O)[C@H]3NC(C)=O)[C@H](O[C@]3(C(=O)O)C[C@H](O)[C@@H](NC(C)=O)[C@@H]([C@@H](O)[C@H](O)CO)O3)[C@H]2O)[C@H](O)[C@H]1O)NC(=O)CCCCCCCCCCCCCCCCC
Activity [1]: Active
Activity [2]: Active
Activity [3]: Active
Activity [4]: Active
Activity [5]: Active
Activity [6]: Active
Activity [7]: Active
Activity [8]: Active
Activity [9]: Active
Activity [10]: Active
Activity [11]: Active
Activity [12]: Active
Activity [13]: Active
Activity [14]: Active
Activity [15]: Active
Activity [16]: Active
Activity [17]: Active
Activity [18]: Active
Activity [19]: Active
Activity [20]: Active
Activity [21]: Active
Activity [22]: Active
Activity [23]: Active
Activity [24]: Active
Activity [25]: Active
Activity [26]: Active
Activity [27]: Active
Activity [28]: Active
Activity [29]: Active
Activity [30]: Active
Activity [31]: Active
IC50 at 24 h [32]: > 200 µM
Activity [33]: Active
Activity [34]: Active
Activity [35]: Active
Activity [36]: Active
Activity [37]: Active
Activity [38]: 80.1 um
Activity [39]: Active
Activity [40]: Active
Activity [41]: Active

Source: ChEMBL document CHEMBL5108016, “Design, synthesis and neurite outgrowth activity of novel ganglioside GM1 derivatives by remodeling of the fatty acid moiety” (Eur J Med Chem, 2022)
